Columns and labels:
Format in all cases: in vivo
[1] = system: CFA-induced inflammatory pain model; test: CFA-induced mechanical allodynia, von Frey paw withdrawal frequency; details: CFA mice, 30 mg/kg i.p., 0.07 g and 0.4 g von Frey filaments, ipsilateral side, 12 to 72 h post-CFA
Protocol: To evaluate the analgesic effects of Compound 14e in vivo, we established an inflammatory pain model using intraplantar injection of CFA. Compound 14e (30 mg/kg) was administered intraperitoneally at 6 h, with subsequent doses at 48 and 72 h after CFA injection. Behavioral assessments, including von Frey testing for mechanical allodynia and heat stimuli for thermal hyperalgesia, were conducted on the injected hind paw at baseline (BL), as well as at 6, 12, 18, 24, 48 and 72 h post-CFA injection. Additionally, flinching and guarding behaviors, indicators of spontaneous pain, were evaluated 72 h after CFA injection. […] (A,B) Evaluation of CFA-induced mechanical allodynia as assessed by withdrawal frequency to 0.07 g (A) and 0.4 g (B) von Frey filaments in mice repetitive treated with 10% DMSO or compound 14e. […] The dosage of compound 14e was determined based on our preliminary experiments. Mechanical hypersensitivity was assessed by measuring paw withdrawal frequency (PWF) as described previously in our reports ([Ma et al., 2021]; [Pan et al., 2021]). The PWF in response to mechanical stimulus was determined using two calibrated von Frey filaments (0.07 and 0.4 g, North Coast Medical Inc., Gilroy, United States). […] The PWF was calculated based on the number of positive responses from the 10 applications ([number of paw withdrawals/10 trials] × 100 = % response frequency).

[2] = system: CFA-induced inflammatory pain model; test: CFA-induced spontaneous pain, flinching and guarding behaviors; details: CFA mice, 30 mg/kg i.p. repeated, 72 h post-CFA
Protocol: To evaluate the analgesic effects of Compound 14e in vivo, we established an inflammatory pain model using intraplantar injection of CFA. Compound 14e (30 mg/kg) was administered intraperitoneally at 6 h, with subsequent doses at 48 and 72 h after CFA injection. Behavioral assessments, including von Frey testing for mechanical allodynia and heat stimuli for thermal hyperalgesia, were conducted on the injected hind paw at baseline (BL), as well as at 6, 12, 18, 24, 48 and 72 h post-CFA injection. Additionally, flinching and guarding behaviors, indicators of spontaneous pain, were evaluated 72 h after CFA injection. […] (A,B) Evaluation of CFA-induced mechanical allodynia as assessed by withdrawal frequency to 0.07 g (A) and 0.4 g (B) von Frey filaments in mice repetitive treated with 10% DMSO or compound 14e. (C) Assessment of CFA-induced thermal hyperalgesia in the latency in mice treated with 10% DMSO or compound 14e. […] The dosage of compound 14e was determined based on our preliminary experiments. Spontaneous nociceptive behavior was recorded in previous studies ([Liu et al., 2023]; [Yang et al., 2018]) Mice were placed in the Plexiglas chamber and allowed to habituate for 30 min. Following acclimatization, the number of flinches and the time spent on guarding behaviors were analyzed for 10 min. […]

Iba1-positive microglia = test: Immunofluorescence of Iba1-positive microglia in spinal dorsal horn of CFA mice; details: 3 days after CFA, 30 mg/kg i.p.
Protocol: Given the critical role of microglial activation in inflammation-mediated responses, we investigated whether Compound 14e could modulate microglial activity in the spinal dorsal horn of mice following Complete Freund’s Adjuvant (CFA) injection. First, we assessed the expression of the microglial marker Iba1 in the L4–L6 segments of the spinal cord.
FIGURE 4 Compound 14e prevented the upregulation of Iba1 in CFA mice.
The mice were anesthetized with isoflurane, and 40 μL of CFA (Sigma-Aldrich) was intraplantarly injected into the mid-plantar surface of their left hind paws. As for the control group, an equivalent volume of normal saline was injected ([Jiang et al., 2018]).
The compound 14e were diluted with 10% DMSO, and were intraperitoneally injected with 30 mg/kg into the mice once a day for 3 days after CFA. The dosage of compound 14e was determined based on our preliminary experiments.
Under anesthesia with 1% pentobarbital sodium (0.1 g/kg, i. p.), mice were perfused intracardially with warm normal saline followed by cold 4% paraformaldehyde (PFA) in 0.1 M phosphate buffer (PB). The whole spinal cord in L4 – L5 segments was rapidly dissected and post-fixed in 4% PFA for 6 h, then cryoprotected by incubation of PB with 20% and 30% sucrose solutions at 4 °C in turn. […] Images were taken with a fluorescence microscope (BX53, Olympus).

O=C1COc2ccc(NC(=O)c3cccc(-c4cn(Cc5c(F)cccc5Cl)nn4)c3)cc2N1 [Compound 14e]
mechanical allodynia, paw withdrawal frequency (PWF) [1]: significantly alleviated | spontaneous pain behaviors (flinching and guarding) [2]: significantly reduced | morphological changes and accumulation of Iba1-positive microglia (immunofluorescence) (Iba1-positive microglia): notably alleviated
